System: patients with advanced solid tumors
Assay: Treatment-emergent adverse events
Assay type: in vivo, human
[1] = Combined t.i.w. cohorts (n = 42)

## C=CC(=O)N1CC[C@H](n2nc(C#Cc3cc(OC)cc(OC)c3)c3c(N)ncnc32)C1 [futibatinib]
Combined q.d. cohorts (n = 44)
  ALT increased TEAE, Any grade: 11 (25) n (%)
  ALT increased TEAE, Grade 1: 4 (9) n (%)
  ALT increased TEAE, Grade 2: 4 (9) n (%)
  ALT increased TEAE, Grade 3: 3 (7) n (%)
  ALT increased TEAE, Grade 4: 0 (0) n (%)
  AST increased TEAE, Any grade: 11 (25) n (%)
  AST increased TEAE, Grade 1: 4 (9) n (%)
  AST increased TEAE, Grade 2: 5 (11) n (%)
  AST increased TEAE, Grade 3: 2 (5) n (%)
  AST increased TEAE, Grade 4: 0 (0) n (%)
  Abdominal pain TEAE, Any grade: 6 (14) n (%)
  Abdominal pain TEAE, Grade 1: 1 (2) n (%)
  Abdominal pain TEAE, Grade 2: 4 (9) n (%)
  Abdominal pain TEAE, Grade 3: 1 (2) n (%)
  Abdominal pain TEAE, Grade 4: 0 (0) n (%)
  Alopecia TEAE, Any grade: 6 (14) n (%)
  Alopecia TEAE, Grade 1: 6 (14) n (%)
  Alopecia TEAE, Grade 2: 0 (0) n (%)
  Alopecia TEAE, Grade 3: 0 (0) n (%)
  Alopecia TEAE, Grade 4: 0 (0) n (%)
  Anemia TEAE, Any grade: 9 (20) n (%)
  Anemia TEAE, Grade 1: 1 (2) n (%)
  Anemia TEAE, Grade 2: 6 (14) n (%)
  Anemia TEAE, Grade 3: 2 (5) n (%)
  Anemia TEAE, Grade 4: 0 (0) n (%)
  Any TEAE, Any grade: 44 (100) n (%)
  Any TEAE, Grade 1: 5 (11) n (%)
  Any TEAE, Grade 2: 11 (25) n (%)
  Any TEAE, Grade 3: 21 (48) n (%)
  Any TEAE, Grade 4: 3 (7) n (%)
  Any treatment-related AE, Any grade: 41 (93) n (%)
  Any treatment-related AE, Grade 1: 13 (30) n (%)
  Any treatment-related AE, Grade 2: 11 (25) n (%)
  Any treatment-related AE, Grade 3: 16 (36) n (%)
  Any treatment-related AE, Grade 4: 1 (2) n (%)
  Asthenia TEAE, Any grade: 9 (20) n (%)
  Asthenia TEAE, Grade 1: 3 (7) n (%)
  Asthenia TEAE, Grade 2: 6 (14) n (%)
  Asthenia TEAE, Grade 3: 0 (0) n (%)
  Asthenia TEAE, Grade 4: 0 (0) n (%)
  Back pain TEAE, Any grade: 5 (11) n (%)
  Back pain TEAE, Grade 1: 3 (7) n (%)
  Back pain TEAE, Grade 2: 2 (5) n (%)
  Back pain TEAE, Grade 3: 0 (0) n (%)
  Back pain TEAE, Grade 4: 0 (0) n (%)
  Constipation TEAE, Any grade: 18 (41) n (%)
  Constipation TEAE, Grade 1: 13 (30) n (%)
  Constipation TEAE, Grade 2: 4 (9) n (%)
  Constipation TEAE, Grade 3: 1 (2) n (%)
  Constipation TEAE, Grade 4: 0 (0) n (%)
  Cough TEAE, Any grade: 5 (11) n (%)
  Cough TEAE, Grade 1: 5 (11) n (%)
  Cough TEAE, Grade 2: 0 (0) n (%)
  Cough TEAE, Grade 3: 0 (0) n (%)
  Cough TEAE, Grade 4: 0 (0) n (%)
  Decreased appetite TEAE, Any grade: 7 (16) n (%)
  Decreased appetite TEAE, Grade 1: 5 (11) n (%)
  Decreased appetite TEAE, Grade 2: 2 (5) n (%)
  Decreased appetite TEAE, Grade 3: 0 (0) n (%)
  Decreased appetite TEAE, Grade 4: 0 (0) n (%)
  Diarrhea TEAE, Any grade: 15 (34) n (%)
  Diarrhea TEAE, Grade 1: 9 (20) n (%)
  Diarrhea TEAE, Grade 2: 5 (11) n (%)
  Diarrhea TEAE, Grade 3: 1 (2) n (%)
  Diarrhea TEAE, Grade 4: 0 (0) n (%)
  Dose reduction because of TEAE, Any grade: 8 (18) n (%)
  Dose reduction because of TEAE, Grade 1: 0 (0) n (%)
  Dose reduction because of TEAE, Grade 2: 1 (2) n (%)
  Dose reduction because of TEAE, Grade 3: 6 (14) n (%)
  Dose reduction because of TEAE, Grade 4: 1 (2) n (%)
  Dosing delay/interruption because of TEAE, Any grade: 26 (59) n (%)
  Dosing delay/interruption because of TEAE, Grade 1: 1 (2) n (%)
  Dosing delay/interruption because of TEAE, Grade 2: 9 (20) n (%)
  Dosing delay/interruption because of TEAE, Grade 3: 16 (36) n (%)
  Dosing delay/interruption because of TEAE, Grade 4: 0 (0) n (%)
  Dry eye TEAE, Any grade: 5 (11) n (%)
  Dry eye TEAE, Grade 1: 4 (9) n (%)
  Dry eye TEAE, Grade 2: 1 (2) n (%)
  Dry eye TEAE, Grade 3: 0 (0) n (%)
  Dry eye TEAE, Grade 4: 0 (0) n (%)
  Dry mouth TEAE, Any grade: 11 (25) n (%)
  Dry mouth TEAE, Grade 1: 10 (23) n (%)
  Dry mouth TEAE, Grade 2: 1 (2) n (%)
  Dry mouth TEAE, Grade 3: 0 (0) n (%)
  Dry mouth TEAE, Grade 4: 0 (0) n (%)
  Dry skin TEAE, Any grade: 6 (14) n (%)
  Dry skin TEAE, Grade 1: 6 (14) n (%)
  Dry skin TEAE, Grade 2: 0 (0) n (%)
  Dry skin TEAE, Grade 3: 0 (0) n (%)
  Dry skin TEAE, Grade 4: 0 (0) n (%)
  Fatigue TEAE, Any grade: 7 (16) n (%)
  Fatigue TEAE, Grade 1: 3 (7) n (%)
  Fatigue TEAE, Grade 2: 3 (7) n (%)
  Fatigue TEAE, Grade 3: 1 (2) n (%)
  Fatigue TEAE, Grade 4: 0 (0) n (%)
  Headache TEAE, Any grade: 2 (5) n (%)
  Headache TEAE, Grade 1: 0 (0) n (%)
  Headache TEAE, Grade 2: 1 (2) n (%)
  Headache TEAE, Grade 3: 1 (2) n (%)
  Headache TEAE, Grade 4: 0 (0) n (%)
  Hypercalcemia TEAE, Any grade: 0 (0) n (%)
  Hypercalcemia TEAE, Grade 1: 0 (0) n (%)
  Hypercalcemia TEAE, Grade 2: 0 (0) n (%)
  Hypercalcemia TEAE, Grade 3: 0 (0) n (%)
  Hypercalcemia TEAE, Grade 4: 0 (0) n (%)
  Hyperphosphatemia TEAE, Any grade: 30 (68) n (%)
  Hyperphosphatemia TEAE, Grade 1: 13 (30) n (%)
  Hyperphosphatemia TEAE, Grade 2: 10 (23) n (%)
  Hyperphosphatemia TEAE, Grade 4: 0 (0) n (%)
  Hyperphosphatemia TEAE, grade 3: 7 (16) n (%)
  Hypomagnesemia TEAE, Any grade: 3 (7) n (%)
  Hypomagnesemia TEAE, Grade 1: 3 (7) n (%)
  Hypomagnesemia TEAE, Grade 2: 0 (0) n (%)
  Hypomagnesemia TEAE, Grade 3: 0 (0) n (%)
  Hypomagnesemia TEAE, Grade 4: 0 (0) n (%)
  Hyponatremia TEAE, Any grade: 2 (5) n (%)
  Hyponatremia TEAE, Grade 1: 0 (0) n (%)
  Hyponatremia TEAE, Grade 2: 0 (0) n (%)
  Hyponatremia TEAE, Grade 3: 2 (5) n (%)
  Hyponatremia TEAE, Grade 4: 0 (0) n (%)
  Nausea TEAE, Any grade: 13 (30) n (%)
  Nausea TEAE, Grade 1: 8 (18) n (%)
  Nausea TEAE, Grade 2: 3 (7) n (%)
  Nausea TEAE, Grade 3: 2 (5) n (%)
  Nausea TEAE, Grade 4: 0 (0) n (%)
  Onycholysis TEAE, Any grade: 1 (2) n (%)
  Onycholysis TEAE, Grade 1: 1 (2) n (%)
  Onycholysis TEAE, Grade 2: 0 (0) n (%)
  Onycholysis TEAE, Grade 3: 0 (0) n (%)
  Onycholysis TEAE, Grade 4: 0 (0) n (%)
  Pyrexia TEAE, Any grade: 5 (11) n (%)
  Pyrexia TEAE, Grade 1: 3 (7) n (%)
  Pyrexia TEAE, Grade 2: 1 (2) n (%)
  Pyrexia TEAE, Grade 3: 1 (2) n (%)
  Pyrexia TEAE, Grade 4: 0 (0) n (%)
  Rash TEAE, Any grade: 1 (2) n (%)
  Rash TEAE, Grade 1: 1 (2) n (%)
  Rash TEAE, Grade 2: 0 (0) n (%)
  Rash TEAE, Grade 3: 0 (0) n (%)
  Rash TEAE, Grade 4: 0 (0) n (%)
  Stomatitis TEAE, Any grade: 9 (20) n (%)
  Stomatitis TEAE, Grade 1: 6 (14) n (%)
  Stomatitis TEAE, Grade 2: 2 (5) n (%)
  Stomatitis TEAE, Grade 3: 1 (2) n (%)
  Stomatitis TEAE, Grade 4: 0 (0) n (%)
  Treatment discontinuation because of TEAE, Any grade: 2 (5) n (%)
  Treatment discontinuation because of TEAE, Grade 1: 0 (0) n (%)
  Treatment discontinuation because of TEAE, Grade 2: 1 (2) n (%)
  Treatment discontinuation because of TEAE, Grade 3: 1 (2) n (%)
  Treatment discontinuation because of TEAE, Grade 4: 0 (0) n (%)
  Urinary tract infection TEAE, Any grade: 0 (0) n (%)
  Urinary tract infection TEAE, Grade 1: 0 (0) n (%)
  Urinary tract infection TEAE, Grade 2: 0 (0) n (%)
  Urinary tract infection TEAE, Grade 3: 0 (0) n (%)
  Urinary tract infection TEAE, Grade 4: 0 (0) n (%)
  Vomiting TEAE, Any grade: 11 (25) n (%)
  Vomiting TEAE, Grade 1: 6 (14) n (%)
  Vomiting TEAE, Grade 2: 3 (7) n (%)
  Vomiting TEAE, Grade 3: 2 (5) n (%)
  Vomiting TEAE, Grade 4: 0 (0) n (%)
[1]
  ALT increased TEAE, Any grade: 5 (12) n (%)
  ALT increased TEAE, Grade 1: 3 (7) n (%)
  ALT increased TEAE, Grade 2: 1 (2) n (%)
  ALT increased TEAE, Grade 3: 1 (2) n (%)
  ALT increased TEAE, Grade 4: 0 (0) n (%)
  AST increased TEAE, Any grade: 4 (10) n (%)

Source: article PMC9743148 (Annals of oncology : official journal of the European …, 2020)
